In ChEMBL document CHEMBL4808195, “Discovery of heterocyclic substituted dihydropyrazoles as potent anticancer agents” (Bioorg Med Chem Lett, 2021):

How the values were obtained:
Assay type in all cases: functional
HCC1806 = test: Anticancer activity against human HCC1806 cells assessed as inhibition of cell growth at 10 uM measured by SRB method
MDA-MB-231 = test: Anticancer activity against human MDA-MB-231 cells assessed as inhibition of cell growth at 10 uM measured by SRB method
NCI-H1975 = test: Anticancer activity against human NCI-H1975 cells assessed as inhibition of cell growth at 10 uM measured by SRB method

Compound	inhibition at 10 µM (HCC1806)	inhibition at 10 µM (MDA-MB-231)	inhibition at 10 µM (NCI-H1975)
CN(C)c1ccc(C2CC(c3ccc(-n4cncn4)cc3)=NN2C(=O)c2ccc(C(F)(F)F)cc2)cc1 (stereo unspecified)	7%	16.7%	11.5%
CN(C)c1ccc(C2CC(c3ccc(-n4cncn4)cc3)=NN2C(=O)c2ccc(F)cc2)cc1 (stereo unspecified)	15.6%	12.5%	-1.1%
CN(C)c1ccc(C2CC(c3ccc(-n4cncn4)cc3)=NN2S(C)(=O)=O)cc1 (stereo unspecified)	10.8%	7.8%	-3.1%
CN1CCN(c2ccc(C3=NN(S(C)(=O)=O)C(c4ccc(N(C)C)cc4)C3)cc2)CC1 (stereo unspecified)	-18.5%	0.6%	-1.3%
CN1CCN(c2ccc(C3=NN(C(=O)CCCl)C(c4ccc(N(C)C)cc4)C3)cc2)CC1 (stereo unspecified)	1.7%	2.4%	-0.2%
CC(=O)N1N=C(c2ccc(-n3cncn3)cc2)CC1c1ccc(N(C)C)cc1 (stereo unspecified)	11%	7.4%	-0.3%
C=C(C)C(=O)N1N=C(c2ccc(-n3ccnc3)cc2)CC1c1ccc(N(C)C)cc1 (stereo unspecified)	1.6%	4.3%	-3.7%
CN1CCN(c2ccc(C3=NN(S(=O)(=O)c4ccc(OC(F)(F)F)cc4)C(c4ccc(N(C)C)cc4)C3)cc2)CC1 (stereo unspecified)	70.8%	10.6%	26.5%
CN(C)c1ccc(C2CC(c3ccc(-n4ccnc4)cc3)=NN2C(=O)Cc2ccccc2)cc1 (stereo unspecified)	2%	7.2%	-5.5%
CN(C)c1ccc(C2CC(c3ccc(-n4ccnc4)cc3)=NN2C(=O)c2cc(Cl)cc(Cl)c2)cc1 (stereo unspecified)	44.5%	48.8%	58.7%
COC(=O)CC(=O)N1N=C(c2ccc(-n3cncn3)cc2)CC1c1ccc(N(C)C)cc1 (stereo unspecified)	-7.8%	6.8%	1.5%
CN(C)c1ccc(C2CC(c3ccc(-n4cncn4)cc3)=NN2S(=O)(=O)c2ccc(OC(F)(F)F)cc2)cc1 (stereo unspecified)	25.2%	18.5%	11.1%
CN1CCN(c2ccc(C3=NN(C(=O)c4ccc(F)cc4)C(c4ccc(N(C)C)cc4)C3)cc2)CC1 (stereo unspecified)	31.8%	3.5%	32.2%
CC(=O)N1N=C(c2ccc(N3CCN(C)CC3)cc2)CC1c1ccc(N(C)C)cc1 (stereo unspecified)	-0.8%	-1%	-1.9%
CN(C)c1ccc(C2CC(c3ccc(-n4cncn4)cc3)=NN2S(=O)(=O)c2ccc(Br)cc2)cc1 (stereo unspecified)	26.3%	10.4%	-0.6%
CN(C)c1ccc(C2CC(c3ccc(-n4cncn4)cc3)=NN2S(=O)(=O)c2ccc(C(F)(F)F)cc2)cc1 (stereo unspecified)	37%	15.3%	5.5%
CN(C)c1ccc(C2CC(c3ccc(-n4ccnc4)cc3)=NN2S(=O)(=O)c2ccc(C#N)cc2)cc1 (stereo unspecified)	4.7%	7.1%	0.7%
CN1CCN(c2ccc(C3=NNC(c4ccc(N(C)C)cc4)C3)cc2)CC1 (stereo unspecified)	31.2%	11.4%	2.4%
Cc1ccc(S(=O)(=O)N2N=C(c3ccc(N4CCN(C)CC4)cc3)CC2c2ccc(N(C)C)cc2)cc1 (stereo unspecified)	32.2%	10.7%	38.1%
CN(C)c1ccc(C2CC(c3ccc(-n4cncn4)cc3)=NN2C(=O)CCCl)cc1 (stereo unspecified)	-3.4%	3.7%	-0.7%
CN(C)c1ccc(C2CC(c3ccc(-n4ccnc4)cc3)=NN2C(=O)c2ccc(C(F)(F)F)cc2)cc1 (stereo unspecified)	28%	17.9%	15%
CN(C)c1ccc(C2CC(c3ccc(-n4ccnc4)cc3)=NN2)cc1 (stereo unspecified)	-20.9%	7.6%	0.1%
